The target in assay [1] is Serine/threonine-protein kinase 4 (Homo sapiens) (UniProt Q13043). In words: Inhibition of MST1 Lys1 labeling site harbouring AIHKETGQIVAIKQVPVESDLQEIIK in human A-375 cells at 0.05 uM by KiNativ Profiling analysis relative to control.
The target in assay [2] is Ribosomal protein S6 kinase alpha-4 (Homo sapiens) (UniProt O75676). In words: Inhibition of C-terminal RPS6KA4 kinase domain 2 (unknown origin) at 1 uM by Ambit Kinomescan binding assay relative to control.
For assay [3], the target named is Serine/threonine-protein kinase 4 (Homo sapiens) (UniProt Q13043). In words: Inhibition of MST1 (unknown origin) at 1 uM by Ambit Kinomescan binding assay relative to control.
In assay [4] the target is Mitogen-activated protein kinase kinase kinase 20 (Homo sapiens, UniProt Q9NYL2). In words: Inhibition of ZAK K1 labeling site in human Huh-7 cells at 1 uM by KiNativ Profiling analysis relative to control. The assay is classed as cell-based.
Mitogen-activated protein kinase kinase kinase 20, sequence (Q9NYL2 2-800 limits assumed): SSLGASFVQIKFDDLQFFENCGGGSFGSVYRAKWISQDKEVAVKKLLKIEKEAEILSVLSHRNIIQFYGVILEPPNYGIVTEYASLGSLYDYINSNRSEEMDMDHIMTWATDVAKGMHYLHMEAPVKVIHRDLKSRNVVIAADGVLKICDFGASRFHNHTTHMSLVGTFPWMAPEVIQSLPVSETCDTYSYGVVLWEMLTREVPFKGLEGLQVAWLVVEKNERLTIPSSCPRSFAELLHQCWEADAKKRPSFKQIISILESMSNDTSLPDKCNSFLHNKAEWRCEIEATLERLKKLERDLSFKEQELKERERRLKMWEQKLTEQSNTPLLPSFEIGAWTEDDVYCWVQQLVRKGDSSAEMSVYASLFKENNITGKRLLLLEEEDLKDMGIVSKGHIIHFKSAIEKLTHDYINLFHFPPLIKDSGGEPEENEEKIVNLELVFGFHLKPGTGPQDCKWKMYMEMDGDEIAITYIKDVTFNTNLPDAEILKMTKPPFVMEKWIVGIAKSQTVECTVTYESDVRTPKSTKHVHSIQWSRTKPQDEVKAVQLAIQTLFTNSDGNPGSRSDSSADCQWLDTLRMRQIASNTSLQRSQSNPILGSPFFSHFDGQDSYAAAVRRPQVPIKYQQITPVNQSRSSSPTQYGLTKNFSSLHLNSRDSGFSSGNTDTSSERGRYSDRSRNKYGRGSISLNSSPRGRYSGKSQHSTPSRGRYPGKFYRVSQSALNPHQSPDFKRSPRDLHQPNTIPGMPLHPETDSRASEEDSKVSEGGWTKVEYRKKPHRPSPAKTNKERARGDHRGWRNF
Assay [5] addresses RAC-beta serine/threonine-protein kinase (Homo sapiens) (UniProt P31751). In words: Inhibition of AKT2 (unknown origin) at 10 uM by Ambit Kinomescan binding assay.
In assay [6] the target is Casein kinase I isoform delta (Homo sapiens) (UniProt P48730). Description: Inhibition of CK1 delta K2 labeling site in human Huh-7 cells at 10 uM by KiNativ Profiling analysis relative to control. The class given is cell-based.
Casein kinase I isoform delta (Homo sapiens), sequence (P48730 whole entry, looked up, canonical isoform): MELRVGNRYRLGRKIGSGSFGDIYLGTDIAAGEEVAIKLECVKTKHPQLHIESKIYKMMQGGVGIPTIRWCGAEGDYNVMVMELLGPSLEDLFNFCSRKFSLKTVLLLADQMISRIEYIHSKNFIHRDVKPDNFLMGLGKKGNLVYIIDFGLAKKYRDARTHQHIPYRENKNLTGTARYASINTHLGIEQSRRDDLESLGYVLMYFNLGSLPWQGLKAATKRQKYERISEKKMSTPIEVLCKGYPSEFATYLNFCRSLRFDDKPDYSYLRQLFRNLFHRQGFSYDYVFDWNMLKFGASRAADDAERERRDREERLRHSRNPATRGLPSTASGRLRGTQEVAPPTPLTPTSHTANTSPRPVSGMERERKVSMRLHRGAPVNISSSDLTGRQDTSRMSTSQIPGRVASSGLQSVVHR
The target in assay [7] is Rho-associated protein kinase 2 (Homo sapiens) (UniProt O75116). Description: Inhibition of ROCK2 Lys2 labeling site in human A-375 cells at 0.05 uM by KiNativ Profiling analysis relative to control. The class given is cell-based.
Rho-associated protein kinase 2 (Homo sapiens), sequence (O75116 whole entry, looked up): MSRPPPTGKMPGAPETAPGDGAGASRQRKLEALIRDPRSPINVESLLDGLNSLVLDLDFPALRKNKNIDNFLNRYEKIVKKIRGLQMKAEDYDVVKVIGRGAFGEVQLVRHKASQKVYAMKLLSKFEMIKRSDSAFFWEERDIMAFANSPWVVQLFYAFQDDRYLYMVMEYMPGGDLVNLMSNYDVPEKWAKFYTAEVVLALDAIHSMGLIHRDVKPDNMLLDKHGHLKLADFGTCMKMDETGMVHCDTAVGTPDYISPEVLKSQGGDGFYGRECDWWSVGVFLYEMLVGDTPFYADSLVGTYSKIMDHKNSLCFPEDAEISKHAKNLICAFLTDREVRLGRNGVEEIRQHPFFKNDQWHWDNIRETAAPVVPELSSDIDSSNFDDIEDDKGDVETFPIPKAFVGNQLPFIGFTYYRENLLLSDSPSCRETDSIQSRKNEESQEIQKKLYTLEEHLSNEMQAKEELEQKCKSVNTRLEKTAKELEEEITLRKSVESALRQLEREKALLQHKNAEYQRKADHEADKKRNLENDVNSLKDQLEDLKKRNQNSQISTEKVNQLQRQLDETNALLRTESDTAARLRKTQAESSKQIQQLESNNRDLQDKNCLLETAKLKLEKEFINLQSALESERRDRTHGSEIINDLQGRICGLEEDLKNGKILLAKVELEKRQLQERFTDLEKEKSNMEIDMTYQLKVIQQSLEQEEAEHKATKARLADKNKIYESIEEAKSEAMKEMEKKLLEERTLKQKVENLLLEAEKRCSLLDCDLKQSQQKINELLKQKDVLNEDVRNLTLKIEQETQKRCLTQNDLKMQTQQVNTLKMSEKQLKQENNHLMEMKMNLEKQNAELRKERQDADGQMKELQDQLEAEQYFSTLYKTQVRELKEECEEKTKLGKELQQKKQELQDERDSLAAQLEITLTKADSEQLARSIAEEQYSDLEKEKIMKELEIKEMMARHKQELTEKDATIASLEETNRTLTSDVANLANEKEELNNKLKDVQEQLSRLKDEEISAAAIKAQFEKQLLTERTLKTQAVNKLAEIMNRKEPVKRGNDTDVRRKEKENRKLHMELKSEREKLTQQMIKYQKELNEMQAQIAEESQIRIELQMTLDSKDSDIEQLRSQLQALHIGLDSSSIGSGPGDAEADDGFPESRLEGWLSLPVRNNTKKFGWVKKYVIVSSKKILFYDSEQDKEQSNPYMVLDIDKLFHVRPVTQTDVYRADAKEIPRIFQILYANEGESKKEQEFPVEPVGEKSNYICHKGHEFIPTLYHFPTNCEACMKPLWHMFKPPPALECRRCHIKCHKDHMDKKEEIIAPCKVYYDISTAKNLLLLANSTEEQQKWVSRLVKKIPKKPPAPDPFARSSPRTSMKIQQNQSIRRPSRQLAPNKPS
Assay [8] addresses Cyclin-dependent kinase-like 2 (Homo sapiens) (UniProt Q92772). In words: Inhibition of CDKL2 (unknown origin) at 10 uM by Ambit Kinomescan binding assay relative to control.
The target of assay [9] is T1, Dual specificity mitogen-activated protein kinase kinase 3 (Homo sapiens) (UniProt P46734).
T1 sequence (whole entry): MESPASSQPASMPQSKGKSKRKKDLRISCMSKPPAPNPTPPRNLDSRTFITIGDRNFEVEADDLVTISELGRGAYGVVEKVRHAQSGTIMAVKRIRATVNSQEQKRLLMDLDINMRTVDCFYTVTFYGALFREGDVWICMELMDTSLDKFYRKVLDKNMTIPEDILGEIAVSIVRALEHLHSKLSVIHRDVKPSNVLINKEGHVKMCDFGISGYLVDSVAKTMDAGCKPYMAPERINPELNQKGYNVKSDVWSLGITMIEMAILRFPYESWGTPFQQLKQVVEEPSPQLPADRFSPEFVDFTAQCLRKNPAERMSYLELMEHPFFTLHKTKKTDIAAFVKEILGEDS
Description: Inhibition of MEK3 (unknown origin) at 10 uM by Ambit Kinomescan binding assay.

Assay [10] deals with T2, Eukaryotic elongation factor 2 kinase (Homo sapiens) (UniProt O00418).
T2 sequence (whole entry): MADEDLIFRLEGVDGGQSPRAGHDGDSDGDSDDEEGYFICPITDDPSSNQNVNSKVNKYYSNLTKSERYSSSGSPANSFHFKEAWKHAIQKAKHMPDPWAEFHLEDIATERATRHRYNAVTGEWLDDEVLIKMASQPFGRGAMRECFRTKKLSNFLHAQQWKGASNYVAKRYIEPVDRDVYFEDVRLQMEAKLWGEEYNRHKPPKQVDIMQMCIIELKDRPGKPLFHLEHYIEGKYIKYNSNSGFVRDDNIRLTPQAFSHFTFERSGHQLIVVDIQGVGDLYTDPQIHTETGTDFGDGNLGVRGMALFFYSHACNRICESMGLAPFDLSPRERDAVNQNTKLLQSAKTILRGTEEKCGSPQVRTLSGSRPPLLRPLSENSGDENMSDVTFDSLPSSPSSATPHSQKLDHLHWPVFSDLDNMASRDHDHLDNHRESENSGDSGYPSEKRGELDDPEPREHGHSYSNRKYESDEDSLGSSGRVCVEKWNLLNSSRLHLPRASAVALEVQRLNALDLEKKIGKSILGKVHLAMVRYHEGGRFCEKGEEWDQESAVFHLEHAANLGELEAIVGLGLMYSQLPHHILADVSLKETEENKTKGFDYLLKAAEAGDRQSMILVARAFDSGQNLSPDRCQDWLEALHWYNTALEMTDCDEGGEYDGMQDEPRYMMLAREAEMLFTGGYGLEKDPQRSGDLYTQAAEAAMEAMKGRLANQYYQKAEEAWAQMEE
Description: Inhibition of eEF2K ATP labeling site in human Huh-7 cell lysate at 1 uM by KiNativ Profiling analysis relative to control. The assay is classed as subcellular.

For assay [11], the target named is Cyclin-dependent kinase 18 (Homo sapiens) (UniProt Q07002). In words: Inhibition of PCTAIRE3 Lys1 labeling site in human Huh-7 cells at 1 uM by KiNativ Profiling analysis relative to control. The assay is classed as cell-based.
Cyclin-dependent kinase 18 (Homo sapiens), sequence (Q07002 whole entry): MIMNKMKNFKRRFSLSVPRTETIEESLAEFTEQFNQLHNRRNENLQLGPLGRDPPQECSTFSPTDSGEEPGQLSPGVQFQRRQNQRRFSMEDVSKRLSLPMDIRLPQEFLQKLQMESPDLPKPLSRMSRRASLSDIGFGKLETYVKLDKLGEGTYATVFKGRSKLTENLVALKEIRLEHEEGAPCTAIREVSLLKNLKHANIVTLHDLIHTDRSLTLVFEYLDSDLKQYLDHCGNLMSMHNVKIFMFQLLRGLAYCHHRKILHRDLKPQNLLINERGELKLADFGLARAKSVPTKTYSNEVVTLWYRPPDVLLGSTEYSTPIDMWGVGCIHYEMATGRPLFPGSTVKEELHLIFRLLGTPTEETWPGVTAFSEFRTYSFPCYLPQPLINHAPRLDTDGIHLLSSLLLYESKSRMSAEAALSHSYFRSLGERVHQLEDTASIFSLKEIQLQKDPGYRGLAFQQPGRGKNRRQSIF
A short description of assay [12]: Inhibition of KHS1 Lys1 labeling site in human Huh-7 cell lysate at 1 uM by KiNativ Profiling analysis relative to control. As to conditions: condition cancer.
For assay [13], the target named is T3, Serine/threonine-protein kinase D1 (Homo sapiens) (UniProt Q15139).
T3 sequence (whole entry): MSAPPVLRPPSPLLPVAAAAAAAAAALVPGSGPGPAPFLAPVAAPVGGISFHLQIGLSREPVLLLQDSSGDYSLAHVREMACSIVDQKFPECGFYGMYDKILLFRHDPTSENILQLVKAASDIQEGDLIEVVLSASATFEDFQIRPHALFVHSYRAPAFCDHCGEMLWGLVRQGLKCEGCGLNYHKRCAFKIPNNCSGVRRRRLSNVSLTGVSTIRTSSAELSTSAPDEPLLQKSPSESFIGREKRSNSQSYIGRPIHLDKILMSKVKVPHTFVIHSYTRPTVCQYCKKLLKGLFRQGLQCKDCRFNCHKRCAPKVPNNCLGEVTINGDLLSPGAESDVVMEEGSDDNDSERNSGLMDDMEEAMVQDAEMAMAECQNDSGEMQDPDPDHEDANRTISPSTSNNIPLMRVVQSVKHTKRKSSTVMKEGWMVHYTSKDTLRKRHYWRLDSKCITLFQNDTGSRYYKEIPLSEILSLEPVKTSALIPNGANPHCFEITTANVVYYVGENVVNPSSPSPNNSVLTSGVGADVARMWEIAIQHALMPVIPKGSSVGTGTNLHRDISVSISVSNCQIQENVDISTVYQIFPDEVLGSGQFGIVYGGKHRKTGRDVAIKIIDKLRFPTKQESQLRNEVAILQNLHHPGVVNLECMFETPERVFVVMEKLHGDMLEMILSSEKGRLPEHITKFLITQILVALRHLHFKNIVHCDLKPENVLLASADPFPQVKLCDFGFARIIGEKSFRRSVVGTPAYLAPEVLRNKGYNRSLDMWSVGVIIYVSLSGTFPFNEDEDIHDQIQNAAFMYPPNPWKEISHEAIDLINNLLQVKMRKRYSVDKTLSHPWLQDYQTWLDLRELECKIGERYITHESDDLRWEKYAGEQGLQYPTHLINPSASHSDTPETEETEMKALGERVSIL
Description: Inhibition of PKD1 Lys2 labeling site in human Huh-7 cells at 1 uM by KiNativ Profiling analysis relative to control. The class given is cell-based.

Calls of active or inactive are those of the source. No cut-off for these calls is given here.

Serine/threonine-protein kinase 4 (Homo sapiens), sequence (Q13043 whole entry, looked up, the tested form may be a part): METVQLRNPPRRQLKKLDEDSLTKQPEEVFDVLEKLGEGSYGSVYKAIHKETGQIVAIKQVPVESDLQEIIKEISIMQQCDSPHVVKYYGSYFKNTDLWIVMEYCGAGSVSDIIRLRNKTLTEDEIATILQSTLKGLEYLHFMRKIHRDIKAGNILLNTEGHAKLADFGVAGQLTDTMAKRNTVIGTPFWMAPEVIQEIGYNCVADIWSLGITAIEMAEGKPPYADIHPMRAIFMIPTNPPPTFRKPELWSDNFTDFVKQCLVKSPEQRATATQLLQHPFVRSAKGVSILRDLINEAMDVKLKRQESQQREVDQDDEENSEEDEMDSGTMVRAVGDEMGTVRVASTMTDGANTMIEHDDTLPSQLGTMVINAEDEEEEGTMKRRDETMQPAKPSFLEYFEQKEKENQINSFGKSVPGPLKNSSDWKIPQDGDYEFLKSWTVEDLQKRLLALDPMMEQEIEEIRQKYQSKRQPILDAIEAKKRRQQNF
Cyclin-dependent kinase-like 2 (Homo sapiens), sequence (Q92772 whole entry): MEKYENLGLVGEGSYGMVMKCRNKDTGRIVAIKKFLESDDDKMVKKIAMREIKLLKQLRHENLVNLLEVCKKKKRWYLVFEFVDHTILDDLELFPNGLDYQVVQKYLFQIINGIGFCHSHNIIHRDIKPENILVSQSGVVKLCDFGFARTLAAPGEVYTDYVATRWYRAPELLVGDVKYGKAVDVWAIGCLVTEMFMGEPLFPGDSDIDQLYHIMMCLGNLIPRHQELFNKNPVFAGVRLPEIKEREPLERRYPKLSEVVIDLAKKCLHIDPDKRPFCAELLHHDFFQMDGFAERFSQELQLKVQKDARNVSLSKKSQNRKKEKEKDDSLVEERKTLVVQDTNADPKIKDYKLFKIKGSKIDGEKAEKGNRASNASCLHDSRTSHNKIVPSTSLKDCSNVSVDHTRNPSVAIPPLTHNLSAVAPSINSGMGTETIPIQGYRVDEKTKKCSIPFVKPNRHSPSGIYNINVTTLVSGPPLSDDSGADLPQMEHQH
Ribosomal protein S6 kinase alpha-4 (Homo sapiens), sequence (O75676 whole entry, looked up, the tested form may be a part): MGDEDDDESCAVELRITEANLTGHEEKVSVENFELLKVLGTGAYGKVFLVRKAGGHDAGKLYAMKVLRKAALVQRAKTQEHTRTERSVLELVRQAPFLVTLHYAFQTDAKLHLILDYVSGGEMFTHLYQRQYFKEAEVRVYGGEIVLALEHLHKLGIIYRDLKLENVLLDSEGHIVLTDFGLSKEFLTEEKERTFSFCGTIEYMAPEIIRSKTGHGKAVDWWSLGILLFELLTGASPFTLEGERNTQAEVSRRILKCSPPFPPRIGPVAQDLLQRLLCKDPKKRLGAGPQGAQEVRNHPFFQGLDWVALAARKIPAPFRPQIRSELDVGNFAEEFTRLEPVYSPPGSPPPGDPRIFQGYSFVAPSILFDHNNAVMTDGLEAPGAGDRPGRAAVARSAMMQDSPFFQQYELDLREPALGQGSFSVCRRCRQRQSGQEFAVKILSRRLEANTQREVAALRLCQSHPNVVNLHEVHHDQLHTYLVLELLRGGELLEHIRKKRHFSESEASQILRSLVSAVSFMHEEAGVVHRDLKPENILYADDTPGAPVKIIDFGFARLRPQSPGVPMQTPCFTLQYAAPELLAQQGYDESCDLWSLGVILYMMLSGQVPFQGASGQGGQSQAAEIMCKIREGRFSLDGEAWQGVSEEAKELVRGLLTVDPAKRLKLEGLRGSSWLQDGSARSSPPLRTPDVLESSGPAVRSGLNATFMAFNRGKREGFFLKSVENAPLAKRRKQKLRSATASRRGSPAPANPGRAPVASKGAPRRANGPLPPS

As for `CCN1CCN(Cc2ccc(NC(=O)c3ccc(C)c(/C=C/c4cnc5[nH]ccc5c4OC)c3)cc2C(F)(F)F)CC1`, the figures for the inhibition in assay [1], in assay [2] and in [3] were 0.6%, 73% and 72%, respectively.
As for `CCN1CCN(Cc2ccc(NC(=O)c3ccc(C)c(Oc4ccnc5[nH]ccc45)c3)cc2C(F)(F)F)CC1`, the inhibition (as a rule, the change of the read-out against control, counted positive when it falls) in assay [4] was 50.3%; in assay [6], 7.8%; in assay [7], 6%; in assay [8], 0.9%. For the same molecule, the inhibition result in [5] and in assay [9] was “inactive” each time.
`CNc1cc(Oc2cc(C(=O)Nc3cc(N4CCN(C)CC4)cc(C(F)(F)F)c3)ccc2C)ncn1`: the inhibition in assay [10] was -3.5%; in assay [11], 12%; in assay [13], 9%. Further, in [12], the inhibition at 1 µM was -10.2%.

For the origin of these results see ChEMBL document CHEMBL5696442, “Discovery of type II inhibitors of TGFβ-activated kinase 1 (TAK1) and mitogen-activated protein kinase kinase kinase kinase 2 (MAP4K2)” (J Med Chem, 2015).
